{"source": "patent US20090264310A1", "about": "“SCREENING METHOD FOR THE ISOLATION OF CENTROSOMAL CLUSTER-INHIBITORS AS ANTI-CANCER AGENTS” (priority 2006, published 2009)", "key": {"BJ fibroblasts [1]": {"system": "BJ fibroblasts", "test": "Induction of multipolar mitotic spindles (immunofluorescence)", "assay_type": "cell-based, human", "settings": "24 hours", "procedure": "(§1) All cell lines (BJ fibroblasts (available from ATCC), SCC114 (18), HeLa (ATCC), MCF7 (ATCC), N115 and U2OS (ATCC) were cultured in Dulbecco's modified Eagle's Medium (DMEM, PAA Laboratories, Pasching, Germany) supplemented with 10% FCS (PAA), 20 U/ml penicillin and 20 μg/ml streptomycin (Biochrom, Berlin, Germany) at 37° C., 5% CO2. SCC114-D1 cells stably expressing GFP-α-tubulin were generated by transfection (Fugene 6, Roche Diagnostics, Mannheim, Germany) of the transgene in pEGFP-C1 (Clontech, Heidelberg, Germany) and maintained under selective pressure by addition of geniticin (Gibco, Invitrogen, Karlsruhe, Germany) into complete medium at a concentration of […]. When indicated, griseofulvin (Sigma, Deisenhofen, Germany) was added to culture medium at several concentrations (0-100 μM), and incubation was continued for 24-72 h. Griseofulvin was dissolved in DMSO (Sigma); the final DMSO concentration in all experiments was 0.1%.\n(§2) Cells grown on glass coverslips were fixed in −20° C. methanol/acetone (1:1) for 7 min. After blocking non-specific sites with 10% goat serum (Sigma)/PBS for 5 min, the cells were incubated with primary antibodies for 1 h. Unlabelled antibodies were used at following dilutions: mouse monoclonal antibody to Eg5, 1:500 (Transduction Laboratories, Lexington, Ky.); mouse monoclonal antibody to γ-tubulin (GTU-88) at 1:300, rabbit polyclonal antibody to γ-tubulin at 1:100, and mouse monoclonal antibody to α-tubulin at 1:500 (Sigma, Deisenhofen, Germany); rabbit anti-phospho-histone H3, 1:500 (Upstate Biotechnology, Lake Placid, N.Y.); mouse monoclonal antibody to dynein, 1:50 (Chemicon International, Hampshire, UK); mouse monoclonal antibody to NuMA, 1:50 (Calbiochem, Darmstadt, Germany). Coverslips were then washed three times with PBS and incubated with secondary antibodies for 25 min before adding DAPI to a final concentration of 0.1 μg/ml (Sigma) to the antibody dilution for additional 5 min. The following fluorchrome-conjugated secondary antibodies were used: rabbit Alexa 488, 1:1000 (Molecular Probes, Invitrogen, Karlsruhe, Germany) and mouse Cy3, 1:400 (Jackson ImmunoResearch Laboratories, West Grove, PN). Coverslips were washed three times with PBS, rinsed shortly with water and post-fixed in absolute ethanol for 1 min. Airdryed Coverslips were embedded in Vectashield (Vector Laboratories, Burlingame, Calif.) or Fluoromount G (Southern Biotech, Birmingham, Ala.). Immunostained cells were examined using a Zeiss Axiovert 200 M fluorescence microscope (Göttingen, Germany) and images were processed with Photoshop (Adobe, München, Germany) software."}, "HeLa cells [2]": {"system": "HeLa cells", "test": "Induction of multipolar mitotic spindles (immunofluorescence)", "assay_type": "cell-based, human", "settings": "100 μM griseofulvin, 24 hours", "procedure": "as §1, §2"}, "MCF7 cells": {"system": "MCF7 cells", "test": "Induction of multipolar mitotic spindles (immunofluorescence)", "assay_type": "cell-based, human", "settings": "24 hours", "procedure": "as §1, §2"}, "SCC114 cells [3]": {"system": "SCC114 cells", "test": "Induction of multipolar mitotic spindles (immunofluorescence)", "assay_type": "cell-based, human", "settings": "SCC114, 20 μM griseofulvin, 24 hours", "procedure": "as §1, §2"}, "U2OS cells": {"system": "U2OS cells", "test": "Induction of multipolar mitotic spindles (immunofluorescence)", "assay_type": "cell-based, human", "settings": "100 μM griseofulvin, 24 hours", "procedure": "as §1, §2"}, "BJ fibroblasts [4]": {"system": "BJ fibroblasts", "test": "G2/M cell cycle arrest, propidium iodide flow cytometry", "assay_type": "cell-based, human", "settings": "20 μM griseofulvin, 24 hours", "procedure": "(§3) Cells were plated in 6-well plates (Greiner Bio-One, Kremsmuenster; Austria), treated 24 h later with different concentrations of griseofulvin and incubated for 24 h. Both attached and unattached cells were harvested and washed with PBS. For cell cycle, analysis cells were fixed in −20° C. methanol (70%) for at least 45 min. Cells were then washed with PBS and incubated in propidiumodide buffer containing 0.01 mg/ml propidiumiodide (Molecular Probes) and 0.25 mg/ml RNase A (Roth, Karlsruhe, Germany) for 30 min. For the histone H3-assay, cells were fixed in 70% ethanol, incubated with 0.25% Triton X-100/PBS for 15 min on ice, and stained with rabbit antibody to phospho-histone H3 (1:500; Upstate Biotechnology) for 2 h at room temperature, followed by 1 h of incubation with Alexa 488 conjugated anti-rabbit IgG (1:1000; Molecular Probes). DNA was counterstained with propidiumiodide buffer (see above) for 30 minutes at 37° C. Cells were analyzed with a FACScan flow cytometer (Becton Dickinson, Heidelberg, Germany) using CellQuest Software."}, "HeLa cells [5]": {"system": "HeLa cells", "test": "G2/M cell cycle arrest, propidium iodide flow cytometry", "assay_type": "cell-based, human", "settings": "20 μM griseofulvin, 24 hours", "procedure": "as §3"}, "SCC114 cells [6]": {"system": "SCC114 cells", "test": "G2/M cell cycle arrest, propidium iodide flow cytometry", "assay_type": "cell-based, human", "settings": "SCC114, 20 μM griseofulvin, 24 hours", "procedure": "as §3"}, "BJ fibroblasts [7]": {"system": "BJ fibroblasts", "test": "Mitotic cells by phospho-histone H3 two-parameter flow cytometry", "assay_type": "cell-based, human", "settings": "35 μM griseofulvin, 24 hours (4.1% prior to treatment)", "procedure": "as §3"}, "SCC114 cells [8]": {"system": "SCC114 cells", "test": "Mitotic cells by phospho-histone H3 two-parameter flow cytometry", "assay_type": "cell-based, human", "settings": "SCC114, 35 μM griseofulvin, 24 hours (29.1% prior to treatment)", "procedure": "as §3"}, "[9]": {"test": "Colorimetric MTT cytotoxicity assay", "assay_type": "cell-based", "settings": "human, SCC114 cells, SCC114, 0-100 μM, read-out: IC50 cytotoxicity / half-maximal inhibition of cell growth", "procedure": "(§4) The cytotoxicity assay was performed as previously described (53). Briefly, MTT (Thiazolyl Blue Tetrazolium Blue; Sigma) was dissolved in PBS at 5 mg/ml and filtered. 0.3×10^5 cells were plated in 96 well plates (Nunc) 24 h before addition of griseofulvin. Cells were then treated with different concentrations of griseofulvin for 22 h. Stock MTT solution (10 μl per 100 μl medium) was added to all wells, and plates were incubated additional 2 h at 37° C. Medium was discarded, 200 μl DMSO was added to each well and incubated for 20 minutes at 37° C. When all crystals were dissolved, the plates were read on a microtiterplate […] reader (Tecan, Crailsheim, Germany), using a test wavelength of 650 nm and a reference wavelength of 750 nm."}, "BJ fibroblasts [10]": {"system": "BJ fibroblasts", "test": "Colorimetric MTT cytotoxicity assay", "assay_type": "cell-based", "settings": "Homo sapiens, Fibroblast, highest concentration 100 μM, read-out: growth inhibition", "procedure": "as §4"}, "[11]": {"system": "N115 mouse neuroblastoma cells", "test": "Inhibition of centrosome coalescence and microtubule network in interphase cells (immunofluorescence)", "assay_type": "cell-based", "settings": "N115, 50 μM griseofulvin, 24 hours", "procedure": "as §1\nCells grown on glass coverslips were fixed in −20° C. methanol/acetone (1:1) for 7 min. After blocking non-specific sites with 10% goat serum (Sigma)/PBS for 5 min, the cells were incubated with primary antibodies for 1 h. […] Immunostained cells were examined using a Zeiss Axiovert 200 M fluorescence microscope (Göttingen, Germany) and images were processed with Photoshop (Adobe, München, Germany) software. […]"}, "SCC114 cells [12]": {"system": "SCC114 cells", "test": "Dynein and NuMA localization on mitotic spindles (immunofluorescence)", "assay_type": "cell-based, human", "settings": "SCC114, 100 μM griseofulvin, 24 hours", "procedure": "as §2, with “The following fluorchrome-conjugated secondary antibodies were used: rabbit Alexa 488, 1:1000 (Molecular Probes, Invitrogen, Karlsruhe, Germany) and mouse Cy3, 1:400 (Jackson ImmunoResearch Laboratories, West Grove, PN). Coverslips were washed three times with PBS, rinsed shortly with water and post-fixed in absolute ethanol for 1 min. Airdryed Coverslips were embedded in Vectashield (Vector Laboratories, Burlingame, Calif.) or Fluoromount G (Southern Biotech, Birmingham, Ala.).” left out, “software. […]” for “software.”"}}}
{"smiles": "COC1=CC(=O)C[C@@H](C)[C@]12Oc1c(Cl)c(OC)cc(OC)c1C2=O", "note": "[griseofulvin]", "values": [{"measurement": "percentage of metaphases multipolar", "setting": "BJ fibroblasts [1]; BJ fibroblasts, 20 μM griseofulvin", "result": 3, "unit": "%"}, {"measurement": "percentage of mitotic cells harbouring bipolar spindles", "setting": "BJ fibroblasts [1]; normal diploid fibroblasts, 100 μM griseofulvin", "result": 87, "unit": "%"}, {"measurement": "percentage of mitoses multipolar", "setting": "HeLa cells [2]", "result": "more than 85%"}, {"measurement": "percentage of multipolar spindles", "setting": "MCF7 cells; MCF7, 20 μM griseofulvin", "result": 20, "unit": "%"}, {"measurement": "percentage of mitoses multipolar", "setting": "MCF7 cells; MCF7, 100 μM griseofulvin", "result": "more than 85%"}, {"measurement": "percentage of multipolar spindles", "setting": "SCC114 cells [3]", "result": 53, "unit": "%"}, {"measurement": "percentage of mitoses multipolar", "setting": "U2OS cells", "result": "more than 85%"}, {"measurement": "percentage of cells in G2/M", "setting": "BJ fibroblasts [4]", "result": "19.1±1.4", "unit": "%"}, {"measurement": "percentage of cells arrested in G2/M phase", "setting": "HeLa cells [5]", "result": "65.6±7.6", "unit": "%"}, {"measurement": "percentage of cells arrested in G2/M phase", "setting": "SCC114 cells [6]", "result": "91.2±3.9", "unit": "%"}, {"measurement": "percentage of cells in mitosis", "setting": "BJ fibroblasts [7]", "result": 5.5, "unit": "%"}, {"measurement": "percentage of cells in mitosis", "setting": "SCC114 cells [8]", "result": 56.4, "unit": "%"}, {"measurement": "IC50 at 22 h", "setting": "[9]", "result": 35, "unit": "µM"}, {"measurement": "inhibition at 100 µM", "setting": "BJ fibroblasts [10]", "result": "25 ± 1", "unit": "%"}, {"measurement": "percentage of interphase cells harbouring only short and convoluted microtubules", "setting": "[11]", "result": 98, "unit": "%"}, {"measurement": "percentage of interphase cells lacking clustering of centrioles into a single aggregate", "setting": "[11]", "result": 68, "unit": "%"}, {"measurement": "percentage of multipolar spindles labelled with antibody to NuMA", "setting": "SCC114 cells [12]", "result": "99.5±0.5", "unit": "%"}, {"measurement": "percentage of multipolar spindles labelled with antibody to dynein", "setting": "SCC114 cells [12]", "result": "99±1", "unit": "%"}]}
